Test results reported in article PMC7999366, “Alkyl-Resorcinol Derivatives as Inhibitors of GDP-Mannose Pyrophosphorylase with Antileishmanial Activities” (Molecules, 2021).
Where two headings read alike, the source gives them in different places.

Assays:
hGDP-MP = molecular target: T1, hGDP-MP (Homo sapiens, UniProt Q9Y5P6); assay: Enzyme inhibition assay on purified recombinant hGDP-MP (malachite green); format: biochemical; settings: 37 °C, 20 min, read-out: hGDP-MP IC50 (µM) ± SD
T1 construct: His; made in house; host or cells: E. coli
Source text: (§1) Recombinant His6 tagged GDP-MP from L. infantum (LiGDP-MP) was produced in E. coli and purified using Ni-nitrilotriacetic acid (Ni-NTA) and size exclusion chromatography Hiload^TM16/60 Superdex^TM 200 column as previously described for LdGDP-MP [12]. Recombinant His-tagged GDP-MP from human (hGDP-MP) was produced in E. coli and purified using a Mono-Q anion exchange column followed by a Hiload^TM 16/60 Superdex^TM 200 column as previously described.
(§2) Enzyme activities of both LiGDP-MP and hGDP-MP were measured at 37 °C for 20 min in 384 well plates in a 20-µL reaction containing 50 mM Tris-HCl pH 7.5, 5 mM MgCl2, 100 µM Mannose-1-phosphate, 100 µM GTP, 1 mM DTT, 0.1 U/mL inorganic pyrophosphatase (Sigma-Aldrich, Saint-Quentin-Fallavier, France) and 2 ng/µL of recombinant GDP-MP [12, 29]. The reaction was initiated by the addition of GDP-MP, and was stopped after adding 20 µL of revelation buffer containing malachite green (0.03% w/v), ammonium molybdate (0.2% w/v) and Triton X-100 (0.05% v/v) in HCl (0.7 M) for 5 min at 37 °C. The quantity of inorganic phosphate generated, representing GDP-MP activity, was determined by measuring OD650nm with a spectrometer plate reader Polar Omega (BMG LabTech, Champigny-sur-Marne, France).
(§3) To evaluate compounds on purified GDP-MPs, enzyme activities were measured as described above in the presence of 100 µg/mL of natural products originating from a chemical library from ICSN (Institut de Chimie des Substances Naturelles, Gif-sur-Yvette). The inhibitors were added in the reaction mix, before the addition of GDP-MP. The percentage of inhibition was then calculated in reference to untreated enzyme. The statistical parameter (Z-factor) was calculated to validate the quality of the HTS assays as described previously. As a control, compounds were evaluated in parallel in the same conditions on inorganic pyrophosphatase alone in order to discard false-positives. […] The IC50 were determined by nonlinear regression using GraphPad Prism 7.0 and further converted in µM in order to normalize units in Table 1. Enzyme inhibition assays were performed in triplicate in three independent experiments.

LiGDP-MP = LiGDP-MP (Leishmania infantum, UniProt A4I048); assay: Enzyme inhibition assay on purified recombinant LiGDP-MP (malachite green); format: biochemical
Source text: as §1, §2, §3

[1] = test system: L. infantum axenic amastigotes; assay: In vitro antileishmanial evaluation on axenic amastigotes (resazurin); format: cell-based, Leishmania infantum; settings: 72 h incubation, read-out: L. infantum Axenic Amastigotes IC50 (µM) ± SD
Procedure: Promastigotes of Leishmania infantum (MHOM/FR/2008/LEM5700) were cultured in the dark at 26 °C with 5% CO2 in M199 complete medium containing M199 medium supplemented with adenosine (100 µM), hemin (0.5 mg/L), Hepes (40 mM) pH 7.4, and heat inactivated foetal bovine serum (10%; HIFBS). Cultures of axenic amastigotes of L. infantum were adapted from. Briefly, axenic amastigotes of L. infantum were obtained from late log promastigotes diluted at 1 × 10^6/mL in M199 complete medium acidified at pH 5.5 and cultured at 37 °C with 5% CO2.
The evaluations of activity on axenic amastigotes were adapted from the protocols previously described. Briefly, two-fold serial dilutions of the compounds, from 100 µM to 0.049 µM, were performed in 100 µL of complete medium (see above) in 96-well microplates. Axenic amastigotes were then added to each well at a density of 10^6/mL in a 200 µL final volume. After 72 h of incubation at 37 °C with 5% CO2, 20 µL of resazurin (450 µM) was added to each well and further incubated in the dark for 24 h at 37 °C with 5% CO2. Cell viability was then monitored as described above. The activity of the compounds was expressed as IC50, which was determined by nonlinear regression using GraphPad Prism 7.0.

[2] = test system: L. infantum intramacrophage amastigotes; assay: In vitro antileishmanial evaluation on intramacrophage amastigotes (Giemsa counting in RAW 264.7); format: cell-based, Leishmania infantum; settings: for IC50: Leishmania infantum, RAW264.7, RAW 264.7 macrophages, 48 h treatment, read-out: L. infantum Intramacrophage Amastigotes IC50 (µM) ± SD; for Selectivity Index: CC50/IC50 on intramacrophage amastigotes
Procedure: Concerning the evaluation on intramacrophage amastigotes, the determination of the cytotoxicity as presented above was necessary to use the highest drug concentrations to be studied on the intramacrophage amastigote model. RAW 264.7 macrophages were plated in 16-well Lab-Tek chamber slides (Thermo-FisherVillebon-sur-Yvette, France) at a density of 2 × 10^4 cells per well and incubated for 24 h at 37 °C with 5% CO2. […] After 24 h of infection at 37 °C with 5% CO2, extracellular parasites were removed, and DMEM complete medium (100 µL) containing two-fold serial dilutions of the compounds, from 100 µM to 0.049 µM, was added to each well. A positive control treated with 1% DMSO was added to each Lab-tek chamber-slide. After 48 h of treatment, the medium was removed and cells were fixed in methanol for 1 min, stained in 10% Giemsa (Merck) for 5 min, and further rinsed in water before observation in phase contrast at the microscope (Olympus CX31; Olympus, Rungis, France). The number of amastigotes was counted by two independent experimenters for a total of 300 macrophages per well and the ratio of amastigotes per macrophage was determined for each condition. This ratio was further compared with the one of the positive control, considered as 100%, to determine a percentage of inhibition (% I), as follows: % I = 100 − ((ratio of amastigotes per macrophage in treated cells/ratio of amastigotes per macrophages in untreated cells) × 100). The activity of the compounds was expressed as IC50, which was determined by nonlinear regression using GraphPad Prism 7.0. […] In vitro antileishmanial evaluations were performed in triplicate in three independent experiments.

[3] = In vitro cytotoxicity on RAW 264.7 macrophages (resazurin); format: cell-based; settings: mouse, 48 h incubation, read-out: Cytotoxicity on RAW 264.7 CC50 (µM) ± SD
Procedure: The RAW 264.7 macrophages (ATCC) were cultured at 37 °C with 5% CO2 in DMEM complete medium containing Dulbecco′s Modified Eagle′s Medium (DMEM, Invitrogen, Thermo-Fisher, Villebon-sur-Yvette, France) supplemented with penicillin-streptomycin (100 U/mL; Invitrogen), and heat-inactivated fetal bovine serum (10%; HIFBS).
Cytotoxicity was evaluated on RAW 264.7 macrophages. Cells were plated in 96-well microplates at a density of 2 × 10^4 cells per well. After an incubation of 24 h at 37 °C with 5% CO2, the medium was removed in each well, and 100 µL of DMEM complete medium containing two-fold serial dilutions of the compounds, from 100 µM to 0.049 µM, was added to each well. After 48 h of incubation at 37 °C with 5% CO2, 10 µL of resazurin (450 µM) was added to each well, and further incubated in the dark for 4 h at 37 °C with 5% CO2. In living cells, resazurin is reduced in resorufin, and this conversion is monitored by measuring OD570nm (resorufin) and OD600nm (resazurin; multimode microplate reader Spark®, Tecan, Lyon, France). […] In vitro cytotoxicity assays were performed in triplicate in three independent experiments.

[4] = purified recombinant enzyme, 37 °C, 20 min, read-out: LiGDP-MP IC50 (µM) ± SD

T1 sequence (Q9Y5P6 whole entry): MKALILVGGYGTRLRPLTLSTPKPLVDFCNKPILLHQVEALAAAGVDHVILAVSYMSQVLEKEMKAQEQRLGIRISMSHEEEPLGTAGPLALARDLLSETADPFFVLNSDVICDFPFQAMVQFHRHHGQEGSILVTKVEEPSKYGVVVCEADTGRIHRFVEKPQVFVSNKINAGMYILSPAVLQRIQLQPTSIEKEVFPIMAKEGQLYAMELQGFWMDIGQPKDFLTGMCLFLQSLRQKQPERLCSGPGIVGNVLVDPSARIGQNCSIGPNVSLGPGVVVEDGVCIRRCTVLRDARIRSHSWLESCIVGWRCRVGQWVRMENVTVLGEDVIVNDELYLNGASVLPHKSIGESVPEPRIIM
LiGDP-MP, sequence (A4I048 entry or part of it): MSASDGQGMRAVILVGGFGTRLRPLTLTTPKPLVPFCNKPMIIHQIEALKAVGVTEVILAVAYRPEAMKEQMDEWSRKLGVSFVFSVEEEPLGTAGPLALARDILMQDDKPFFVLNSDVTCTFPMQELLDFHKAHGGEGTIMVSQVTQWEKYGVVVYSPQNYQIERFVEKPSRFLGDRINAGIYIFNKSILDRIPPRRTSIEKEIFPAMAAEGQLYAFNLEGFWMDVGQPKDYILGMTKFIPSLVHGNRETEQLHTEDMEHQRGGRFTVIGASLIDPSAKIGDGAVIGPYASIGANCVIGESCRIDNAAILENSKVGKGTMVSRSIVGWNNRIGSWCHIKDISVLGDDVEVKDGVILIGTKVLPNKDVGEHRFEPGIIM

| IC50 (hGDP-MP) [µM] | IC50 (LiGDP-MP; [4]) [µM] | IC50 ([1]; Leishmania infantum, 72 h) [µM] | IC50 [2] [µM] | IC50 [1] [µM] | Structure (SMILES) | IC50 (LiGDP-MP) [µM] | activity on leishmanial GDP-MP (in words) (LiGDP-MP; purified enzyme) | CC50 at 48 h [3] [µM] | Selectivity Index [2] |
| --- | --- | --- | --- | --- | --- | --- | --- | --- | --- |
| 122 ± 26.1 | 100 ± 16.6 | > 100 | 42.7 ± 1.3 | – | CCCC/C=C\CCCCCCCc1cccc(O)c1C(=O)O [compound 6, (Z)-2-hydroxy-6-(tridec-8-en-1-yl)benzoic acid] | – | – | > 100 | >2.3 |
| 79.9 ± 5.9 | 120 ± 27.5 | > 100 | > 100 | – | CCCC/C=C\CCCCCc1cccc(O)c1C(=O)O [compound 4, Khookerianic acid B] | – | – | 83.1 ± 7 | <0.8 |
| 38.3 ± 4.1 | 50.6 ± 4.8 | > 100 | > 100 | – | CCCCCCCCCCCc1cccc(O)c1C(=O)O [compound 5, anagigantic acid] | – | – | > 100 | – |

Continued, compound first:

| Structure (SMILES) | IC50 (hGDP-MP) [µM] | IC50 (LiGDP-MP; [4]) [µM] | IC50 ([1]; Leishmania infantum, 72 h) [µM] | IC50 [2] [µM] | IC50 [1] [µM] | IC50 (LiGDP-MP) [µM] | activity on leishmanial GDP-MP (in words) (LiGDP-MP; purified enzyme) | CC50 at 48 h [3] [µM] | Selectivity Index [2] |
| --- | --- | --- | --- | --- | --- | --- | --- | --- | --- |
| COc1cc(O)cc(CCCCCCCCCCCCCCCCc2cc(O)cc(O)c2)c1 [compound 2, 1-hydroxy-3-methoxy-5-[16′-(3′′,5′′-dihydroxyphenyl)-hexadecanyl]benzene] | 13.7 ± 14.2 | 5.9 ± 3.5 | – | – | – | – | – | – | – |
| CCCCCCCCCCCCCCCCOP(=O)([O-])OCC[N+](C)(C)C [Miltefosine, hexadecylphosphocholine, reference compound] | – | – | 1 ± 0.3 | 6.7 ± 1.7 | – | > 250 | did not show any activity | – | – |
| CCCCCCCCCCCCCc1cccc(O)c1C(=O)O [compound 7, 2-hydroxy-6-tridecylbenzoic acid] | 29 ± 2.5 | 16.9 ± 5 | > 100 | > 100 | – | – | – | > 100 | – |
| COc1cc(O)cc(CCCCCCCCC/C=C\CCCCCCCc2cc(O)cc(O)c2)c1 [compound 3, (10′Z)-1-hydroxy-3-methoxy-5-[18′-(3′′,5′′-dihydroxy-phenyl)-10′-octodecen-1′-yl]benzene] | 1.9 ± 0.4 | 2.3 | > 25 | > 25 | 49.5 ± 4.2 | – | – | 31.8 ± 1.6 | <1.2 |
| COc1cc(O)cc(CCCCCCC/C=C\CCCCCCCc2cc(O)cc(O)c2)c1 [compound 1, (8′Z)-1-hydroxy-3-methoxy-5-[16′-(3′′,5′′-dihydroxy-phenyl)-8′-hexadecen-1′-yl]benzene] | 1.3 ± 0.2 | – | > 50 | > 50 | 78.9 ± 3.1 | – | – | 34.4 ± 1.5 | <0.7 |
